Results reported in patent publication US4327097A, “Novel penicillins” (Toyama Chemical Co., Ltd., priority 1974, dated 1982).
Values after ≈ are worked out from the molar mass of the structure shown.

Experiments:
[1] = tested on: β-lactamase, Pseudomonas aeruginosa GN 238; assay: Resistant activity against β-lactamase, iodometric assay; type: biochemical; settings: β-lactamase from Pseudomonas aeruginosa GN 238; Potassium Penicillin G = 100
Method: (3) Resistant activity against β-lactamase, Pseudomonas aerugionsa GN 238:
The resistant activity of each compound against β-lactamase was measured in the manner described below.
β-Lactamase was prepared from Pseudomonas aeruginosa GN 238. This microorganism was cultured in 100 ml of a medium containing 2 g of yeast extract, 10 g of polypeptone, 2 g of glucose, 7 g of disodium hydrogen phosphate, 2 g of potassium dihydrogen phosphate, 1.2 g of ammonium sulfate and 0.4 g of magnesium sulfate, per liter, in a 500-ml Erlenmeyer flask for 6 hrs. at 37° C. with shaking. The resulting cells were collected by centrifugation (5,000 r.p.m.×10 min.), washed three times with 0.1 M phosphate buffer (pH 7.0). Subsequently, the cells were subjected to sonication (20 KHz, 20 min.) and then centrifuged at 15,000 r.p.m. for 60 min. By using the supernatant of enzyme fluid, the resistance of each compound against β-lactamase was determined by the iodometric assay method. Each numeral shown in Table 7 is a relative activity value calculated by assuming as 100 the activity of the control Potassium Penicillin G.

Staphylococcus aureus = assay: MIC against clinical isolates; type: cell-based; settings: Table 5-1, clinical isolate; unit assumed
Escherichia coli = assay: MIC against clinical isolates; type: cell-based; settings: Table 5-2, clinical isolate; unit assumed
Pseudomonas aeruginosa = assay: MIC against clinical isolates; type: cell-based; settings: unit assumed
Klebsiella pneumoniae [2] = assay: MIC, plate method, standard strains; type: cell-based; settings: Table 3, standard strain; unit assumed
Procedure, shortened: (§1)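 Heart infusion agar, pH 7.4, plate method. Inoculum: 10^4 cells/plate (10^6 cells/ml). Read-out: MIC.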

Proteus vulgaris 3027 = assay: MIC, plate method, standard strains; type: cell-based; settings: Table 3, standard strain; unit assumed
Procedure, shortened: as §1

[3] = tested on: Staphylococcus aureus 209p; assay: MIC, plate method, standard strains; type: cell-based; settings: Table 3, standard strain, Heart infusion agar pH 7.4; unit assumed
Procedure, shortened: as §1

Escherichia coli NIHJ = assay: MIC, plate method, standard strains; type: cell-based; settings: Table 3, standard strain; unit assumed
Procedure, shortened: as §1

[4] = tested on: Pseudomonas aeruginosa I.F.O.; assay: MIC, plate method, standard strains; type: cell-based; settings: Table 3, standard strain; unit assumed
Procedure, shortened: as §1

Proteus mirabilis = assay: MIC against clinical isolates; type: cell-based; settings: Table 5-6, clinical isolate; unit assumed
Klebsiella pneumoniae [5] = assay: MIC against clinical isolates; type: cell-based; settings: Table 5-4, clinical isolate; unit assumed
Proteus vulgaris = assay: MIC against clinical isolates; type: cell-based; settings: Table 5-6, clinical isolate; unit assumed
Shigella flexneri = assay: MIC against clinical isolates; type: cell-based; settings: Table 5-5, clinical isolate; unit assumed
Method: (§2) The minimum inhibitory concentration (MIC) was determined by the plate method disclosed in "Chemotherapy" (Japan), Vol. 16, (1968), pages 98-99. The culture medium used was a Heart infusion agar (pH 7.4). The number of the cells per plate used in the inoculum was 10^4 (10^6 cells/ml).
(§3) MIC was determined in the same manner as in the preceding paragraph (1).

Shigella sonnei = assay: MIC against clinical isolates; type: cell-based; settings: Table 5-5, clinical isolate; unit assumed
Method: as §2, §3

Salmonella typhi-murium = assay: MIC against clinical isolates; type: cell-based; settings: Table 5-5, clinical isolate; unit assumed
Proteus morganii = assay: MIC against clinical isolates; type: cell-based; settings: Table 5-6, clinical isolate; unit assumed

For `CCCCCCN1CCN(C(=O)NC(C(=O)NC2C(=O)N3C2SC(C)(C)C3C(=O)O)c2ccccc2)C(=O)C1=O` (single isomer, unassigned) [Compound 46], the “Relative activity (%), resistant activity against β-lactamase” value [1] was 12%, the MIC Staphylococcus aureus F-1 (Staphylococcus aureus) was 6.25 mg/L (≈ 10.9 µM) and the MIC Staphylococcus aureus F-2 (Staphylococcus aureus) was 1.57 mg/L (≈ 2.74 µM). For the same compound, the MIC Staphylococcus aureus F-4 (Staphylococcus aureus) was 6.25 mg/L (≈ 10.9 µM), the MIC Staphylococcus aureus F-5 (Staphylococcus aureus) was > 200 mg/L and the MIC Staphylococcus aureus MS 8588 (Staphylococcus aureus) was 1.57 mg/L (≈ 2.74 µM). The MIC Staphylococcus aureus MS 8619 (Staphylococcus aureus) was < 0.4 mg/L, the MIC Staphylococcus aureus MS 8684 (Staphylococcus aureus) was 1.57 mg/L (≈ 2.74 µM) and the MIC Staphylococcus aureus MS 8713 (Staphylococcus aureus) was 6.25 mg/L (≈ 10.9 µM). For the same compound, the MIC Escherichia coli GN 3435 (Escherichia coli) was < 0.4 mg/L, the MIC Escherichia coli GN 3465 (Escherichia coli) was 6.25 mg/L (≈ 10.9 µM) and the MIC Escherichia coli GN 3611 (Escherichia coli) was > 200 mg/L. For the same compound, the MIC Escherichia coli K-3 (Escherichia coli) was 50 mg/L (≈ 87.2 µM), the MIC Escherichia coli K-4 (Escherichia coli) was < 0.4 mg/L and the MIC Pseudomonas aeruginosa GN (Pseudomonas aeruginosa; Table 5-3, clinical isolate, strain number not given) was 12.5 mg/L (≈ 21.8 µM). It also gave an MIC Pseudomonas aeruginosa GN 82 (Pseudomonas aeruginosa; Table 5-3, clinical isolate) of 6.25 mg/L (≈ 10.9 µM), an MIC Pseudomonas aeruginosa GN 163 (Pseudomonas aeruginosa; Table 5-3, clinical isolate) of 6.25 mg/L (≈ 10.9 µM) and an MIC Pseudomonas aeruginosa GN 221 (Pseudomonas aeruginosa; Table 5-3, clinical isolate) of 12.5 mg/L (≈ 21.8 µM). It also gave an MIC Pseudomonas aeruginosa GN 1035 (Pseudomonas aeruginosa; Table 5-3, clinical isolate) of 50 mg/L (≈ 87.2 µM), an MIC Pseudomonas aeruginosa GN 1091 (Pseudomonas aeruginosa; Table 5-3, clinical isolate) of 12.5 mg/L (≈ 21.8 µM) and an MIC Pseudomonas aeruginosa GN 2565 (Pseudomonas aeruginosa; Table 5-3, clinical isolate) of 12.5 mg/L (≈ 21.8 µM). It also gave an MIC Pseudomonas aeruginosa GN 2987 (Pseudomonas aeruginosa; Table 5-3, clinical isolate) of 6.25 mg/L (≈ 10.9 µM), an MIC Pseudomonas neruginosa S-1 (Pseudomonas aeruginosa; Table 5-4, clinical isolate) of 50 mg/L (≈ 87.2 µM) and an MIC Pseudomonas neruginosa S-2 (Pseudomonas aeruginosa; Table 5-4, clinical isolate) of 50 mg/L (≈ 87.2 µM). The MIC Pseudomonas neruginosa S-3 (Pseudomonas aeruginosa; Table 5-4, clinical isolate) was 50 mg/L (≈ 87.2 µM), the MIC Pseudomonas neruginosa S-4 (Pseudomonas aeruginosa; Table 5-4, clinical isolate) was 50 mg/L (≈ 87.2 µM) and the MIC Klebsiella pneumoniae (Klebsiella pneumoniae [2]) was 0.4 mg/L (≈ 0.697 µM). For the same compound, the MIC Proteus vulgaris 3027 (Proteus vulgaris 3027) was 0.4 mg/L (≈ 0.697 µM), the MIC Staphylococcus aureus 209p [3] was 0.2 mg/L (≈ 0.349 µM) and the MIC Esche--richin coil NIHJ (Escherichia coli NIHJ) was < 0.1 mg/L. The MIC Pseudomonas aeruginosa I.F.C [4] was 6.25 mg/L (≈ 10.9 µM), the MIC Proteus mirabilis (Proteus mirabilis) was < 0.4 mg/L and the MIC Klebsiella pneumoniae GN 3850 (Klebsiella pneumoniae [5]) was 1.57 mg/L (≈ 2.74 µM). For the same compound, the MIC Klebsiella pneumoniae GN 4081 (Klebsiella pneumoniae [5]) was 12.5 mg/L (≈ 21.8 µM), the MIC Klebsiella pneumoniae GN 4117 (Klebsiella pneumoniae [5]) was 12.5 mg/L (≈ 21.8 µM) and the MIC Proteus vulgaris (Proteus vulgaris) was < 0.4 mg/L. It also gave an MIC Shigella flexneri JS 11215 (Shigella flexneri) of 6.25 mg/L (≈ 10.9 µM), an MIC Shigella flexneri JS 11839 (Shigella flexneri) of 0.79 mg/L (≈ 1.38 µM) and an MIC Shigella sonnei JS 11232 (Shigella sonnei) of 12.5 mg/L (≈ 21.8 µM). For the same compound, the MIC Shigella sonnei JS 11755 (Shigella sonnei) was 0.79 mg/L (≈ 1.38 µM), the MIC Salmonella typhi-murium SL 858 (Salmonella typhi-murium) was < 0.4 mg/L and the MIC Salmonella typhi-murium SL 2136 (Salmonella typhi-murium) was 50 mg/L (≈ 87.2 µM). For the same compound, the MIC Proteus morganii (Proteus morganii) was < 0.4 mg/L.
`CCCN1CCN(C(=O)NC(C(=O)NC2C(=O)N3C2SC(C)(C)C3C(=O)O)c2ccccc2)C(=O)C1=O` (single isomer, unassigned) [Compound 38] was tested, and the “Relative activity (%), resistant activity against β-lactamase” value [1] was 15%, the MIC Staphylococcus aureus F-2 (Staphylococcus aureus) was 1.57 mg/L (≈ 2.95 µM) and the MIC Staphylococcus aureus F-5 (Staphylococcus aureus) was > 200 mg/L. For the same compound, the MIC Staphylococcus aureus MS 8588 (Staphylococcus aureus) was 3.13 mg/L (≈ 5.89 µM), the MIC Staphylococcus aureus MS 8596 (Staphylococcus aureus) was 3.13 mg/L (≈ 5.89 µM) and the MIC Staphylococcus aureus MS 8684 (Staphylococcus aureus) was 3.13 mg/L (≈ 5.89 µM). The MIC Escherichia coli GN 3452 (Escherichia coli) was 3.13 mg/L (≈ 5.89 µM), the MIC Escherichia coli GN 3465 (Escherichia coli) was 50 mg/L (≈ 94.1 µM) and the MIC Escherichia coli GN 3481 (Escherichia coli) was 3.13 mg/L (≈ 5.89 µM). The MIC Escherichia coli GN 3611 (Escherichia coli) was > 200 mg/L, the MIC Escherichia coli K-1 (Escherichia coli) was 3.13 mg/L (≈ 5.89 µM) and the MIC Escherichia coli K-2 (Escherichia coli) was 3.13 mg/L (≈ 5.89 µM). The MIC Escherichia coli K-3 (Escherichia coli) was > 200 mg/L, the MIC Pseudomonas aeruginosa GN 82 (Pseudomonas aeruginosa; Table 5-3, clinical isolate) was 3.13 mg/L (≈ 5.89 µM) and the MIC Pseudomonas aeruginosa GN 163 (Pseudomonas aeruginosa; Table 5-3, clinical isolate) was 3.13 mg/L (≈ 5.89 µM). It also gave an MIC Pseudomonas aeruginosa GN 376 (Pseudomonas aeruginosa; Table 5-3, clinical isolate) of 3.13 mg/L (≈ 5.89 µM), an MIC Pseudomonas aeruginosa GN 1091 (Pseudomonas aeruginosa; Table 5-3, clinical isolate) of 3.13 mg/L (≈ 5.89 µM) and an MIC Klebsiella pneumoniae (Klebsiella pneumoniae [2]) of 3.13 mg/L (≈ 5.89 µM). For the same compound, the MIC Proteus vulgaris 3027 (Proteus vulgaris 3027) was 0.4 mg/L (≈ 0.752 µM), the MIC Staphylococcus aureus 209p [3] was 0.4 mg/L (≈ 0.752 µM) and the MIC Esche--richin coil NIHJ (Escherichia coli NIHJ) was < 0.1 mg/L. For the same compound, the MIC Proteus mirabilis (Proteus mirabilis) was < 0.4 mg/L, the MIC Klebsiella pneumoniae GN 917 (Klebsiella pneumoniae [5]) was 3.13 mg/L (≈ 5.89 µM) and the MIC Klebsiella pneumoniae GN 4081 (Klebsiella pneumoniae [5]) was 50 mg/L (≈ 94.1 µM). The MIC Klebsiella pneumoniae GN 4117 (Klebsiella pneumoniae [5]) was 50 mg/L (≈ 94.1 µM), the MIC Proteus vulgaris (Proteus vulgaris) was < 0.4 mg/L and the MIC Shigella flexneri JS 11215 (Shigella flexneri) was 25 mg/L (≈ 47 µM). For the same compound, the MIC Shigella flexneri JS 11839 (Shigella flexneri) was 1.57 mg/L (≈ 2.95 µM), the MIC Shigella sonnei JS 11232 (Shigella sonnei) was 50 mg/L (≈ 94.1 µM) and the MIC Shigella sonnei JS 11755 (Shigella sonnei) was 3.13 mg/L (≈ 5.89 µM). For the same compound, the MIC Salmonella typhi-murium SL 2136 (Salmonella typhi-murium) was 200 mg/L (≈ 376 µM) and the MIC Proteus morganii (Proteus morganii) was < 0.4 mg/L.
